According to PubChem BioAssay (NCI):
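The compound was tested at five concentrations on cells cultured in 96-well plates, with a 48-hour exposure period. Here, GI50 denotes the concentration required for 50% inhibition of growth. TGI: total growth inhibition.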

Tests used:
Experiment in all cases: growth of human tumour cells (NCI), 48 h
CCRF-CEM leukemia = tested on: CCRF-CEM leukemia
RXF 393 renal = tested on: RXF 393 renal
UACC-257 melanoma = tested on: UACC-257 melanoma
HCC-2998 colon = tested on: HCC-2998 colon
UACC-62 melanoma = tested on: UACC-62 melanoma
SK-MEL-5 melanoma = tested on: SK-MEL-5 melanoma
DU-145 prostate = tested on: DU-145 prostate
SF-268 CNS = tested on: SF-268 CNS
K-562 leukemia = tested on: K-562 leukemia
SNB-19 CNS = tested on: SNB-19 CNS
HL-60(TB) leukemia = tested on: HL-60(TB) leukemia
SNB-75 CNS = tested on: SNB-75 CNS
SK-MEL-28 melanoma = tested on: SK-MEL-28 melanoma
786-0 renal = tested on: 786-0 renal
OVCAR-4 ovarian = tested on: OVCAR-4 ovarian
SF-539 CNS = tested on: SF-539 CNS
T-47D breast = tested on: T-47D breast
CAKI-1 renal = tested on: CAKI-1 renal
NCI-H226 lung = tested on: NCI-H226 lung
A549 NSCLC = tested on: A549 NSCLC
OVCAR-5 ovarian = tested on: OVCAR-5 ovarian
SK-MEL-2 melanoma = tested on: SK-MEL-2 melanoma
NCI/ADR-RES ovarian = tested on: NCI/ADR-RES ovarian
U251 CNS = tested on: U251 CNS
SF-295 CNS = tested on: SF-295 CNS
MCF7 breast = tested on: MCF7 breast
HCT-116 colon = tested on: HCT-116 colon
A498 renal = tested on: A498 renal
BT-549 breast = tested on: BT-549 breast
SW-620 colon = tested on: SW-620 colon
HT29 colon = tested on: HT29 colon
HCT-15 colon = tested on: HCT-15 colon
COLO 205 colon = tested on: COLO 205 colon
OVCAR-8 ovarian = tested on: OVCAR-8 ovarian
LOX IMVI melanoma = tested on: LOX IMVI melanoma
NCI-H23 lung = tested on: NCI-H23 lung
ACHN renal = tested on: ACHN renal
RPMI-8226 leukemia = tested on: RPMI-8226 leukemia
MALME-3M melanoma = tested on: MALME-3M melanoma
EKVX NSCLC = tested on: EKVX NSCLC
HOP-62 NSCLC = tested on: HOP-62 NSCLC
HS 578T breast = tested on: HS 578T breast
NCI-H522 lung = tested on: NCI-H522 lung
MDA-MB-435 = tested on: MDA-MB-435
TK-10 renal = tested on: TK-10 renal
SK-OV-3 ovarian = tested on: SK-OV-3 ovarian
IGROV1 ovarian = tested on: IGROV1 ovarian
MDA-MB-231 breast = tested on: MDA-MB-231 breast
HOP-92 NSCLC = tested on: HOP-92 NSCLC
PC-3 prostate = tested on: PC-3 prostate
KM12 colon = tested on: KM12 colon
SN12C renal = tested on: SN12C renal
NCI-H460 lung = tested on: NCI-H460 lung
MOLT-4 leukemia = tested on: MOLT-4 leukemia
UO-31 renal = tested on: UO-31 renal
SR leukemia = tested on: SR leukemia
OVCAR-3 ovarian = tested on: OVCAR-3 ovarian

## CCN(CC)S(=O)(=O)c1ccc(-c2nc(C(Cl)Cl)nc3cc(-c4ccc(F)cc4)nn23)cc1
CCRF-CEM leukemia
  GI50: > 100 µM
  TGI: > 100 µM
RXF 393 renal
  GI50: 1.54 µM
  TGI: 3.41 µM
UACC-257 melanoma
  GI50: 5.51 µM
  TGI: > 100 µM
HCC-2998 colon
  GI50: 1.89 µM
  TGI: 4.15 µM
UACC-62 melanoma
  GI50: 4.03 µM
  TGI: > 100 µM
SK-MEL-5 melanoma
  GI50: > 100 µM
  TGI: > 100 µM
DU-145 prostate
  GI50: 1.34 µM
  TGI: 2.98 µM
SF-268 CNS
  GI50: 5.14 µM
  TGI: > 100 µM
K-562 leukemia
  GI50: 1.83 µM
  TGI: > 100 µM
SNB-19 CNS
  GI50: 3.7 µM
  TGI: > 100 µM
HL-60(TB) leukemia
  GI50: 1.58 µM
  TGI: 6.65 µM
SNB-75 CNS
  GI50: 11.7 µM
  TGI: > 100 µM
SK-MEL-28 melanoma
  GI50: 2.73 µM
  TGI: 10.8 µM
786-0 renal
  GI50: 5.37 µM
  TGI: > 100 µM
OVCAR-4 ovarian
  GI50: 3.71 µM
  TGI: > 100 µM
SF-539 CNS
  GI50: 2.24 µM
  TGI: 8.88 µM
T-47D breast
  GI50: 2.94 µM
  TGI: > 100 µM
CAKI-1 renal
  GI50: 2.38 µM
  TGI: 13.3 µM
NCI-H226 lung
  GI50: 3.77 µM
  TGI: > 100 µM
A549 NSCLC
  GI50: 2.52 µM
  TGI: 10.1 µM
OVCAR-5 ovarian
  GI50: 3.04 µM
  TGI: > 100 µM
SK-MEL-2 melanoma
  GI50: > 100 µM
  TGI: > 100 µM
NCI/ADR-RES ovarian
  GI50: 2.24 µM
  TGI: > 100 µM
U251 CNS
  GI50: 2.21 µM
  TGI: 14.4 µM
SF-295 CNS
  GI50: 2.29 µM
  TGI: 12.8 µM
MCF7 breast
  GI50: 2.66 µM
  TGI: > 100 µM
HCT-116 colon
  GI50: 1.73 µM
  TGI: > 100 µM
A498 renal
  GI50: 1.33 µM
  TGI: 4.7 µM
BT-549 breast
  GI50: 18.5 µM
  TGI: > 100 µM
SW-620 colon
  GI50: 1.41 µM
  TGI: > 100 µM
HT29 colon
  GI50: 1.55 µM
  TGI: 4.77 µM
HCT-15 colon
  GI50: 1.32 µM
  TGI: > 100 µM
COLO 205 colon
  GI50: 2.02 µM
  TGI: 6.16 µM
OVCAR-8 ovarian
  GI50: 3.94 µM
  TGI: > 100 µM
LOX IMVI melanoma
  GI50: 6.37 µM
  TGI: > 100 µM
NCI-H23 lung
  GI50: 2.49 µM
  TGI: 20.6 µM
ACHN renal
  GI50: 1.16 µM
  TGI: 3.57 µM
RPMI-8226 leukemia
  GI50: 0.733 µM
  TGI: 3.79 µM
MALME-3M melanoma
  GI50: > 100 µM
  TGI: > 100 µM
EKVX NSCLC
  GI50: 2.28 µM
  TGI: 6.57 µM
HOP-62 NSCLC
  GI50: 3.21 µM
  TGI: > 100 µM
HS 578T breast
  GI50: 3.56 µM
  TGI: 93.2 µM
NCI-H522 lung
  GI50: > 100 µM
  TGI: > 100 µM
MDA-MB-435
  GI50: 3.02 µM
  TGI: > 100 µM
TK-10 renal
  GI50: 2.99 µM
  TGI: 8.72 µM
SK-OV-3 ovarian
  GI50: 4.09 µM
  TGI: > 100 µM
IGROV1 ovarian
  GI50: 3.38 µM
  TGI: > 100 µM
MDA-MB-231 breast
  GI50: 2.01 µM
  TGI: 7.27 µM
HOP-92 NSCLC
  GI50: 2 µM
  TGI: 5.47 µM
PC-3 prostate
  GI50: 2.61 µM
  TGI: 18.6 µM
KM12 colon
  GI50: 1.89 µM
  TGI: 9.43 µM
SN12C renal
  GI50: 15.7 µM
  TGI: > 100 µM
NCI-H460 lung
  GI50: 0.923 µM
  TGI: 3.07 µM
MOLT-4 leukemia
  GI50: 8.19 µM
  TGI: > 100 µM
UO-31 renal
  GI50: 2.27 µM
  TGI: 8.99 µM
SR leukemia
  GI50: 2.69 µM
  TGI: > 100 µM
OVCAR-3 ovarian
  GI50: 1.15 µM
  TGI: 2.87 µM
